Patent US9724408B2, “Compositions and methods for activating stimulator of interferon gene-dependent signalling” (ADURO BIOTECH, INC., priority 2013, dated 2017)

Tests used:
[1] = biological target: T1, hSTING (REF) (Homo sapiens, UniProt Q86WV6); test: IFNβ-LUC reporter in HEK293T cells expressing hSTING (REF); assay type: cell-based; settings: 10 μM, digitonin permeabilization, 6 hrs, FIG. 14
T1 construct: GFP; expressed in transfected cells; plasmid from the Vance Laboratory, UC Berkeley
Description: MSCV2.2 plasmids encoding hSTING(REF)-GFP, hSTING(WT)-GFP, hSTING(HAQ)-GFP, hSTING(Q)-GFP and mSTING(WT)-GFP were obtained from the Vance Laboratory at UC Berkeley. hSTING(AQ)-GFP was derived from hSTING(Q)-GFP using a QuickChange Site-Directed Mutagenesis kit (Stratagene). […] 1×10^4 HEK293T STING cells were seeded in 96-well plates and transiently transfected (using Lipofectamine 2000) with 50 ng of a human IFN-β reporter plasmid (pLuc-IFN-β) expressing the human IFN-β promoter upstream of a luciferase reporter and 10 ng of TK-renilla for normalization. 24 hours later, cells were stimulated with native and synthetic CDN derivative molecules using digitonin permeabalization to ensure uniform uptake. Each STING cell line was stimulated with 10 μM of cyclic [G(3′,5′)pA(3′,5′)p] (cGAMP), cyclic [G(2′,5′)pA(3′,5′)p] […] (RR-CDA), cyclic [A(2′,5′)pA(3′,5′)p] […] (RR-CDG), cyclic [G(2′,5′)pG(3′,5′)p] […] (ML RR-CDG) in 25 ul digitonin buffer (50 mM HEPES, 100 mM KCL, 3 mM MgCl2, 0.1 mM DTT, 85 mM Sucrose, 0.2% BSA, 1 mM ATP, 0.1 mM GTP, 10 ug/ml digitonin). After 20 min, the stimulation mixtures were removed and 200 ul of standard RPMI media was added. After stimulation for 6 hrs, cell lysates were prepared and reporter gene activity measured using the Dual Luciferase Assay System (Promega) on a Spectramax M3 luminometer.

[2] = test system: hSTING (Q); test: IFNβ-LUC reporter in HEK293T cells expressing hSTING (Q); assay type: cell-based, human; settings: 10 μM, digitonin permeabilization, 6 hrs, FIG. 14
Description: To determine the responsiveness of the five known natural human STING variants (referred to as WT, REF, HAQ, AQ and Q) to the native and derivative molecules, a panel of human embryonic kidney (HEK) 293T cell lines that expressed the human STING alleles was generated. […] MSCV2.2 plasmids encoding hSTING(REF)-GFP, hSTING(WT)-GFP, hSTING(HAQ)-GFP, hSTING(Q)-GFP and mSTING(WT)-GFP were obtained from the Vance Laboratory at UC Berkeley. hSTING(AQ)-GFP was derived from hSTING(Q)-GFP using a QuickChange Site-Directed Mutagenesis kit (Stratagene). The sequence of the hSTING(REF) allele is also known as the Barber allele (Ishikawa, H., and Barber, G. N. (2008). Nature 455, 674-678), and has the NCBI Reference Sequence NP_938023.1. The amino acid difference between hSTING(REF) and the other WT, HAQ, AQ and Q human STING alleles are shown in FIG. 13, which is adapted from Yi et al., Plos One 8: e77846 (2013). Stable HEK 293T-derived cell lines expressing each of the individual human STING alleles were generated by FACS sorting of GFP positive cells using a Mo Flo cell sorter at the Cancer Research Laboratory Flow Cytometry Facility at UC Berkeley. 1×10^4 HEK293T STING cells were seeded in 96-well plates and transiently transfected (using Lipofectamine 2000) with 50 ng of a human IFN-β reporter plasmid (pLuc-IFN-β) expressing the human IFN-β promoter upstream of a luciferase reporter and 10 ng of TK-renilla for normalization. 24 hours later, cells were stimulated with native and synthetic CDN derivative molecules using digitonin permeabalization to ensure uniform uptake. Each STING cell line was stimulated with 10 μM of cyclic [G(3′,5′)pA(3′,5′)p] (cGAMP), cyclic [G(2′,5′)pA(3′,5′)p] (ML-cGAMP), Rp, Rp dithio cyclic [G(2′,5′)pA(3′,5′)p] […] (CDA), Rp, Rp dithio cyclic [A(3′,5′)pA(3′,5′)p] (RR-CDA), cyclic [A(2′,5′)pA(3′,5′)p] (ML-CDA), Rp, Rp dithio cyclic [A(2′,5′)pA(3′,5′)p] (ML RR-CDA), cyclic [G(3′,5′)pG(3′,5′)p] (CDG), Rp, Rp dithio cyclic [G(3′,5′)pG(3′,5′)p] (RR-CDG), cyclic [G(2′,5′)pG(3′,5′)p] (ML-CDG) or Rp, Rp dithio cyclic [G(2′,5′)pG(3′,5′)p] (ML RR-CDG) in 25 ul digitonin buffer (50 mM HEPES, 100 mM KCL, 3 mM MgCl2, 0.1 mM DTT, 85 mM Sucrose, 0.2% BSA, 1 mM ATP, 0.1 mM GTP, 10 ug/ml digitonin). After 20 min, the stimulation mixtures were removed and 200 ul of standard RPMI media was added. After stimulation for 6 hrs, cell lysates were prepared and reporter gene activity measured using the Dual Luciferase Assay System (Promega) on a Spectramax M3 luminometer.

[3] = test system: snake venom phosphodiesterase (SVPD)
[4] = biological target: T2, Nuclease P1 (NP1) (Penicillium citrinum, UniProt P24289); test: Resistance to Nuclease P1, read out in THP1-Blue ISG cells; settings: 2.5 mU NP1, 2 hr at 37° C., then 50 μM on THP1-Blue ISG cells, FIG. 12
T2 sequence (P24289 1-270): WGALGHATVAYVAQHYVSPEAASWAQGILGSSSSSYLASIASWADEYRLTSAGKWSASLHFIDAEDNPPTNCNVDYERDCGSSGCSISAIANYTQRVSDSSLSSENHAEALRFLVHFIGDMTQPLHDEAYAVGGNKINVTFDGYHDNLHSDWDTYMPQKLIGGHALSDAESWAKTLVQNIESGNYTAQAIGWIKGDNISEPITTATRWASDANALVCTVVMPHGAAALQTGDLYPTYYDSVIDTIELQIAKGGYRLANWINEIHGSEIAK

[5] = test system: THP1-Blue™ ISG cells; test: Type I interferon induction in THP1-Blue ISG reporter cells (QUANTI-Blue, A655); assay type: cell-based, human; settings: 50 μM, mock treated, 16 hr incubation, FIG. 12
Description: To determine the relative level of type I interferon induced in human cells by each of the native and derivative molecules as a signature of adjuvant potency, 4×10^5 THP1-Blue™ ISG cells (a human monocyte cell line transfected with an IRF-inducible secreted embryonic alkaline phosphatase reporter gene (Invivogen) which express alkaline phosphatase under the control of a promoter comprised of five IFN-stimulated response elements) were incubated with 100 μM of cyclic [G(3′,5′)pG(3′,5′)p] (CDG), cyclic [G(2′,5′)pG(3′,5′)p] (mixed linkage, or ML-CDG), or HBSS for 30 minutes at 37° C. with 5% CO2. After 30 minutes, cells were washed and plated in 96-well dish in RPMI media containing 10% FBS, and incubated at 37° C. with 5% CO2. Cell culture supernatants from each sample were collected after overnight incubation, and 20 μL of the cell culture supernatants was added to 180 μL QUANTI-Blue reagent (Invivogen) and incubated for 45 minutes to evaluate type I interferon protein levels. Readings at Absorbance 655 nm were taken every 3 minutes using a Versa Max kinetic spectrophotometer (Molecular Diagnostics).
[…]. After 30 minutes, cells were washed and plated in 96-well dish in RPMI media containing 10% FBS, and incubated at 37° C. with 5% CO2. Cell culture supernatants from each sample were collected after overnight incubation, and 20 μL of the cell culture supernatants was added to 180 μL QUANTI-Blue reagent (Invivogen) and incubated for 45 minutes. Readings at Absorbance 655 nm were taken at 15 minutes using a SpectraMax spectrophotometer (Molecular Diagnostics).
The induction of type I interferon in human cells was measured to evaluate the potency of untreated and phosphodiesterase-treated oxo, Rp monothio and Rp, Rp dithio derivatives. […]. After 30 minutes, cells were washed and plated in a 96-well dish in RPMI media containing 10% FBS, and incubated at 37° C. with 5% CO2. Cell culture supernatants from each sample were collected after 16 hr incubation, and 20 μL of the cell culture supernatants was added to 180 μL QUANTI-Blue reagent (Invivogen) and incubated for 25 minutes to evaluate type I interferon protein levels. Readings at Absorbance 655 nm were measured with a Versa Max spectrophotometer (Molecular Diagnostics).

T1 sequence (Q86WV6 whole entry): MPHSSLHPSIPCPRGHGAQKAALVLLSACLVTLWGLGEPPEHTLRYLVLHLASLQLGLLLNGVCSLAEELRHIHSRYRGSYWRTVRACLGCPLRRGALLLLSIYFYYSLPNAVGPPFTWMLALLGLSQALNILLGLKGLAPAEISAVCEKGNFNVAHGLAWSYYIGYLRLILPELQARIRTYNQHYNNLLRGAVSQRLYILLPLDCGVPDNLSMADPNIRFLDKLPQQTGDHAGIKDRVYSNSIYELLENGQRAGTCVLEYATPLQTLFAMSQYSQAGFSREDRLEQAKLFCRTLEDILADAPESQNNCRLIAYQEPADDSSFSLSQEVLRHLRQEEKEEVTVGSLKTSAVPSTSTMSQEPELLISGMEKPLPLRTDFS

Nc1ncnc2c1ncn2[C@@H]1O[C@@H]2COP(=O)(O)O[C@H]3[C@@H](O)[C@H](n4cnc5c(N)ncnc54)O[C@@H]3COP(=O)(O)O[C@H]2[C@H]1O [CDA, cyclic[A(3′,5′)pA(3′,5′)p], reference compound]
IFNβ reporter response of hSTING (REF) [1]: responded poorly
IFNβ reporter response of hSTING (Q) [2]: responded poorly
type I interferon inducing activity after SVPD treatment [3]: lost activity
type I interferon inducing activity after NP1 treatment [4]: lost activity

Nc1ncnc2c1ncn2C1OC2COP(=O)(O)OC3C(O)C(COP(=O)(S)OC2C1O)OC3n1cnc2c(N)ncnc21 (stereo not drawn) [ML R-CDA, monothio-cyclic-[A(2′,5′)pA(3′,5′)Rp]]
type I interferon inducing activity after SVPD treatment [3]: susceptible to SVPD treatment
type I interferon inducing activity after NP1 treatment [4]: retained activity after NP1 digestion

Nc1nc2c(ncn2[C@@H]2O[C@@H]3COP(=O)(S)O[C@H]4[C@@H](O)[C@H](n5cnc6c(N)ncnc65)O[C@@H]4CO[P@@](=O)(S)O[C@@H]2[C@@H]3O)c(=O)[nH]1 (stereo partly drawn) [ML RR-cGAMP, dithio-[RP,RP]-cyclic-[G(2′,5′)pA(3′,5′)p]]
IFNβ reporter response of hSTING (Q) [2]: responsive to stimulation

Nc1ncnc2c1ncn2C1OC2COP(=O)(O)OC3C(O)C(COP(=O)(O)OC2C1O)OC3n1cnc2c(N)ncnc21 (stereo not drawn) [ML-CDA, cyclic-[A(2′,5′)pA(3′,5′)p]]
type I interferon inducing activity after SVPD treatment [3]: lost activity
type I interferon inducing activity after NP1 treatment [4]: lost activity

Nc1ncnc2c1ncn2[C@@H]1O[C@@H]2CO[P@@](O)(=S)O[C@H]3[C@@H](O)[C@H](n4cnc5c(N)ncnc54)O[C@@H]3CO[P@@](O)(=S)O[C@H]2[C@H]1O [RR-CDA, Rp, Rp dithio cyclic [A(3′,5′)pA(3′,5′)p], reference compound]
induction of type I interferon, untreated compounds [5]: more potent inducers of type I interferon than the oxo
type I interferon inducing activity after SVPD treatment [3]: retain their potency
type I interferon inducing activity after NP1 treatment [4]: retain their potency

Nc1nc2c(ncn2[C@@H]2O[C@@H]3COP(=O)(O)O[C@H]4[C@@H](O)[C@H](n5cnc6c(N)ncnc65)O[C@@H]4COP(=O)(O)O[C@H]3[C@H]2O)c(=O)[nH]1 [cGAMP, cyclic [G(3′,5′)pA(3′,5′)p], reference compound]
IFNβ reporter response of hSTING (Q) [2]: responded poorly

cyclic [CDG, cyclic [G(3′,5′)pG(3′,5′)p], reference compound]
IFNβ reporter response of hSTING (REF) [1]: responded poorly
IFNβ reporter response of hSTING (Q) [2]: responded poorly
